Assay results taken from patent US20190240236A1, “ORAL TESTOSTERONE UNDECANOATE THERAPY” (Lipocine Inc., priority 2016, published 2019).

Assay: Clinic Study of Testosterone Therapy for hypogonadal males: serum T Cavg and Cmax after oral TU fixed dose regimens
Assay type: in vivo, human
Settings: for Cavg > 300 ng/dL ≥75% patients / Cavg > 300 ng/dL ≥80% patients: with food (at least 10 g fat)
Experimental: Fixed Dose Dosing Regimen Examples Based on Study Described Below for Estimated or Actual Cavg (Administered with Food with at Least 10 g of Fat)
The dosage form from Example B of Composition 4 with dosing regimen (Regimen #9-16) of dosing category BID-equal dose with daily dose range 150-600 mg were used for a Clinic Study of Testosterone Therapy for hypogonadal males.
The clinical study was a randomized double-blind, placebo-controlled dose escalating study of the safety, efficacy, tolerability, and pharmacokinetics of testosterone therapy in hypogonadal males. This clinic study was a single and multiple, ascending-dose study that was designed to determine the optimal starting, titration (if appropriate), or single fixed dose for safety and efficacy targeted by the US FDA. The study also verified the time for testosterone levels to reach steady state and identified a suitable fixed dose dosing regimen that satisfies an unmet need for safety and efficacy for oral TT.
This study was carried out with conditions of a single-center, randomized, double-blind, placebo-controlled, ascending multiple-dose, and serial-group in adult hypogonadal male subjects. The objectives of this study were: • a) To assess the safety, efficacy, and tolerability of escalating single and multiple oral doses of TU dosage forms in hypogonadal males • b) To determine the pharmacokinetics (PK) of testosterone (T), DHT, TU, DHTU, and estradiol (E2) after single and multiple oral doses of TU dosage forms in hypogonadal males • C) To identify a fixed dose dosing regimen satisfying US FDA targets, without needing to titrate, for restoring serum T levels in hypogonadal males to the normal T range.
The dosing regimen for this clinical study ranged from 150 mg daily dose (75 mg BID dose) to 600 mg daily dose (300 mg BID dose). Observed pharmacokinetic parameters (T, DHT, TU, DHTU, and E2) after single and multiple oral doses of TU dosage forms in the patients were recorded in connection with each daily dose listed in the report.
The overall analyzed results of this clinical study were plotted according to % of patients for safety (Cmax<1,500 ng/dL) and efficacy (Cavg>300 ng/dL) with a variety of dosing regimens. Note that only doses that were multiples of 75 mg were tested in the clinical study, the results predicted for the other doses are estimated from these values.

[1] = Daily dose 410 mg, each BID dose 205 mg
[2] = Daily dose 420 mg, each BID dose 210 mg
[3] = Daily dose 430 mg, each BID dose 215 mg
[4] = Daily dose 438 mg, each BID dose 219 mg
[5] = Daily dose 450 mg, each BID dose 225 mg
[6] = Daily dose 460 mg, each BID dose 230 mg
[7] = Daily dose 474 mg, each BID dose 237 mg
[8] = Daily dose 480 mg, each BID dose 240 mg
[9] = Daily dose 490 mg, each BID dose 245 mg
[10] = Daily dose 500 mg, each BID dose 250 mg
[11] = Daily dose 518 mg, each BID dose 259 mg
[12] = Regimen 1, TID-equal dose, TU 75/75/75 mg
[13] = Regimen 2, TID-equal dose, TU 112/112/112 mg
[14] = Regimen 3, TID-equal dose, TU 125/125/125 mg
[15] = Regimen 4, TID-equal dose, TU 150/150/150 mg
[16] = Regimen 5, TID-equal dose, TU 188/188/188 mg
[17] = Regimen 6, TID-equal dose, TU 225/225/225 mg
[18] = Regimen 7, TID-equal dose, TU 237/237/237 mg
[19] = Regimen 8, TID-equal dose, TU 250/250/250 mg
[20] = Regimen 9, BID-equal dose (AM/PM), TU 75/75 mg
[21] = Regimen 10, BID-equal dose (AM/PM), TU 150/150 mg
[22] = Regimen 11, BID-equal dose (AM/PM), TU 215/215 mg
[23] = Regimen 12, BID-equal dose (AM/PM), TU 225/225 mg
[24] = Regimen 13, BID-equal dose (AM/PM), TU 237/237 mg
[25] = Regimen 14, BID-equal dose (AM/PM), TU 250/250 mg
[26] = Regimen 15, BID-equal dose (AM/PM), TU 265/265 mg
[27] = Regimen 16, BID-equal dose (AM/PM), TU 300/300 mg
[28] = Regimen 17, BID-different dose (AM/PM), TU 75/225 mg
[29] = Regimen 18, BID-different dose (AM/PM), TU 75/300 mg
[30] = Regimen 19, BID-different dose (AM/PM), TU 150/225 mg
[31] = Regimen 20, BID-different dose (AM/PM), TU 225/150 mg
[32] = Regimen 21, BID-different dose (AM/PM), TU 225/300 mg
[33] = Regimen 22, BID-different dose (AM/PM), TU 300/75 mg
[34] = Regimen 23, BID-different dose (AM/PM), TU 300/150 mg
[35] = Regimen 24, BID-different dose (AM/PM), TU 300/225 mg

CCCCCCCCCCC(=O)O[C@H]1CC[C@H]2[C@@H]3CCC4=CC(=O)CC[C@]4(C)[C@H]3CC[C@]12C [TU, testosterone undecanoate]
% with Cavg/day > 300 ng/dL [1]: 71.5% | % with Cmax/dose < 1,500 ng/dL [1]: 93.7% | % with Cavg/day > 300 ng/dL [2]: 74.9% | % with Cmax/dose < 1,500 ng/dL [2]: 92.8% | % with Cavg/day > 300 ng/dL [3]: 77.6% | % with Cmax/dose < 1,500 ng/dL [3]: 92.1% | % with Cavg/day > 300 ng/dL [4]: 80.0% | % with Cmax/dose < 1,500 ng/dL [4]: 91.2% | % with Cavg/day > 300 ng/dL [5]: 83.5% | % with Cmax/dose < 1,500 ng/dL [5]: 89.9% | % with Cavg/day > 300 ng/dL [6]: 85.6% | % with Cmax/dose < 1,500 ng/dL [6]: 88.9% | % with Cavg/day > 300 ng/dL [7]: 88.9% | % with Cmax/dose < 1,500 ng/dL [7]: 86.8% | % with Cavg/day > 300 ng/dL [8]: 90.0% | % with Cmax/dose < 1,500 ng/dL [8]: 86.1% | % with Cavg/day > 300 ng/dL [9]: 91.7% | % with Cmax/dose < 1,500 ng/dL [9]: 84.6% | % with Cavg/day > 300 ng/dL [10]: 93.0% | % with Cmax/dose < 1,500 ng/dL [10]: 83.2% | % with Cavg/day > 300 ng/dL [11]: 95.2% | % with Cmax/dose < 1,500 ng/dL [11]: 80.0% | Cavg > 300 ng/dL ≥75% patients [12]: No | Cavg > 300 ng/dL ≥80% patients [12]: No | Cavg > 300 ng/dL ≥75% patients [13]: No | Cavg > 300 ng/dL ≥80% patients [13]: No | Cavg > 300 ng/dL ≥75% patients [14]: No | Cavg > 300 ng/dL ≥80% patients [14]: No | Cavg > 300 ng/dL ≥75% patients [15]: Yes | Cavg > 300 ng/dL ≥80% patients [15]: Yes | Cavg > 300 ng/dL ≥75% patients [16]: Yes | Cavg > 300 ng/dL ≥80% patients [16]: Yes | Cavg > 300 ng/dL ≥75% patients [17]: Yes | Cavg > 300 ng/dL ≥80% patients [17]: Yes | Cavg > 300 ng/dL ≥75% patients [18]: Yes | Cavg > 300 ng/dL ≥80% patients [18]: Yes | Cavg > 300 ng/dL ≥75% patients [19]: Yes | Cavg > 300 ng/dL ≥80% patients [19]: Yes | Cavg > 300 ng/dL ≥75% patients [20]: No | Cavg > 300 ng/dL ≥80% patients [20]: No | Cavg > 300 ng/dL ≥75% patients [21]: No | Cavg > 300 ng/dL ≥80% patients [21]: No | Cavg > 300 ng/dL ≥75% patients [22]: Yes | Cavg > 300 ng/dL ≥80% patients [22]: No | Cavg > 300 ng/dL ≥75% patients [23]: Yes | Cavg > 300 ng/dL ≥80% patients [23]: Yes | Cavg > 300 ng/dL ≥75% patients [24]: Yes | Cavg > 300 ng/dL ≥80% patients [24]: Yes | Cavg > 300 ng/dL ≥75% patients [25]: Yes | Cavg > 300 ng/dL ≥80% patients [25]: Yes | Cavg > 300 ng/dL ≥75% patients [26]: Yes | Cavg > 300 ng/dL ≥80% patients [26]: Yes | Cavg > 300 ng/dL ≥75% patients [27]: Yes | Cavg > 300 ng/dL ≥80% patients [27]: Yes | Cavg > 300 ng/dL ≥75% patients [28]: No | Cavg > 300 ng/dL ≥80% patients [28]: No | Cavg > 300 ng/dL ≥75% patients [29]: No | Cavg > 300 ng/dL ≥80% patients [29]: No | Cavg > 300 ng/dL ≥75% patients [30]: No | Cavg > 300 ng/dL ≥80% patients [30]: No | Cavg > 300 ng/dL ≥75% patients [31]: Yes | Cavg > 300 ng/dL ≥80% patients [31]: No | Cavg > 300 ng/dL ≥75% patients [32]: Yes | Cavg > 300 ng/dL ≥80% patients [32]: Yes | Cavg > 300 ng/dL ≥75% patients [33]: No | Cavg > 300 ng/dL ≥80% patients [33]: No | Cavg > 300 ng/dL ≥75% patients [34]: Yes | Cavg > 300 ng/dL ≥80% patients [34]: Yes | Cavg > 300 ng/dL ≥75% patients [35]: Yes | Cavg > 300 ng/dL ≥80% patients [35]: Yes | US FDA T level targets for safety and efficacy (fixed dose regimen, 430 mg TU daily dose (215 mg BID-equal dose) to 480 mg TU daily dose (240 mg BID-equal dose), no titration): can satisfy US FDA T level targets for safety and efficacy without titration
